Test system: Crude diglycosidase
Assay: Examination of temperature in the conversion into isoflavone aglycons by diglycosidase using soybean materials
Assay type: biochemical, Penicillium multicolor IAM7153
Parameters: Decomposition efficiency of glycitin family in roasted soy flour / Decomposition efficiency of daidzin family in roasted soy flour / Decomposition efficiency of genistin family in soymilk / Decomposition efficiency of daidzin family in soymilk / Decomposition efficiency of glycitin family in defatted soybean / Decomposition efficiency of daidzin family in defatted soybean: concentration or dose not given beside the values
Summary of the method: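 Soybean materials (50 mg) suspended in 20 mM acetate buffer pH 4.0 reacted with crude diglycosidase diluted to 1.88 AU/mL at 80, 65, 55, 45, 37 or 30° C. Reactions stopped with ethanol at 0, 1, 3 and 6 h; isoflavone glycosides and aglycons in supernatant detected by HPLC.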

[1] = 30° C., heat treatment of enzyme no, reaction time 0 h
[2] = 30° C., heat treatment of enzyme no, reaction time 1 h
[3] = 30° C., heat treatment of enzyme no, reaction time 3 h
[4] = 30° C., heat treatment of enzyme no, reaction time 6 h
[5] = 30° C., heat treatment of enzyme yes, reaction time 6 h
[6] = 45° C., heat treatment of enzyme no, reaction time 0 h
[7] = 45° C., heat treatment of enzyme no, reaction time 1 h
[8] = 45° C., heat treatment of enzyme no, reaction time 3 h
[9] = 45° C., heat treatment of enzyme no, reaction time 6 h
[10] = 45° C., heat treatment of enzyme yes, reaction time 6 h
[11] = 45 °C, heat treatment of enzyme: no, 0 h
[12] = 45 °C, heat treatment of enzyme: no, 1 h
[13] = 45 °C, heat treatment of enzyme: no, 3 h
[14] = 45 °C, heat treatment of enzyme: no, 6 h
[15] = 45 °C, heat treatment of enzyme: yes, 6 h
[16] = 55° C., heat treatment of enzyme no, reaction time 0 h
[17] = 55° C., heat treatment of enzyme no, reaction time 1 h
[18] = 55° C., heat treatment of enzyme no, reaction time 3 h
[19] = 55° C., heat treatment of enzyme no, reaction time 6 h
[20] = 55° C., heat treatment of enzyme yes, reaction time 6 h
[21] = 55 °C, heat treatment of enzyme: no, 0 h
[22] = 55 °C, heat treatment of enzyme: no, 1 h
[23] = 55 °C, heat treatment of enzyme: no, 3 h
[24] = 55 °C, heat treatment of enzyme: no, 6 h
[25] = 55 °C, heat treatment of enzyme: yes, 6 h
[26] = 65° C., heat treatment of enzyme no, reaction time 0 h
[27] = 65° C., heat treatment of enzyme no, reaction time 1 h
[28] = 65° C., heat treatment of enzyme no, reaction time 3 h
[29] = 65° C., heat treatment of enzyme no, reaction time 6 h
[30] = 65° C., heat treatment of enzyme yes, reaction time 6 h
[31] = 65 °C, heat treatment of enzyme: no, 0 h
[32] = 65 °C, heat treatment of enzyme: no, 1 h
[33] = 65 °C, heat treatment of enzyme: no, 3 h
[34] = 65 °C, heat treatment of enzyme: no, 6 h
[35] = 65 °C, heat treatment of enzyme: yes, 6 h
[36] = 80° C., heat treatment of enzyme no, reaction time 0 h
[37] = 80° C., heat treatment of enzyme no, reaction time 1 h
[38] = 80° C., heat treatment of enzyme no, reaction time 3 h
[39] = 80° C., heat treatment of enzyme no, reaction time 6 h
[40] = 80° C., heat treatment of enzyme yes, reaction time 6 h
[41] = 80 °C, heat treatment of enzyme: no, 0 h
[42] = 80 °C, heat treatment of enzyme: no, 1 h
[43] = 80 °C, heat treatment of enzyme: no, 3 h
[44] = 80 °C, heat treatment of enzyme: no, 6 h
[45] = 80 °C, heat treatment of enzyme: yes, 6 h

With O=c1c(-c2ccc(O)cc2)coc2cc(O[C@@H]3O[C@H](CO)[C@@H](O)[C@H](O)[C@H]3O)ccc12 [daidzin] the “Decomposition efficiency of daidzin family in concentrated soybean protein” value [1] was 52.3%, the “Decomposition efficiency of daidzin family in defatted soybean” value [1] was 42.2% and the “Decomposition efficiency of daidzin family in concentrated soybean protein” value [2] was 29.5%. The “Decomposition efficiency of daidzin family in defatted soybean” value [2] was “not detected”, the “Decomposition efficiency of daidzin family in concentrated soybean protein” value [3] was 13.4% and the “Decomposition efficiency of daidzin family in defatted soybean” value [3] was “not detected”. The “Decomposition efficiency of daidzin family in concentrated soybean protein” value [4] was 4.0%, the “Decomposition efficiency of daidzin family in defatted soybean” value [4] was “not detected” and the “Decomposition efficiency of daidzin family in concentrated soybean protein” value [5] was 54.5%. For the same compound, the “Decomposition efficiency of daidzin family in defatted soybean” value [5] was “not detected”, the “Decomposition efficiency of daidzin family in soymilk” value (“Decomposition efficiency … in soymilk” below) (30 °C, heat treatment of enzyme: no, 0 h) was 34.1% and the “Decomposition efficiency … in soymilk” value (30 °C, heat treatment of enzyme: no, 1 h) was “not detected”. For the same compound, the “Decomposition efficiency … in soymilk” value (30 °C, heat treatment of enzyme: no, 3 h) was “not detected”, the “Decomposition efficiency … in soymilk” value (30 °C, heat treatment of enzyme: no, 6 h) was “not detected” and the “Decomposition efficiency … in soymilk” value (30 °C, heat treatment of enzyme: yes, 6 h) was 34.8%. The “Decomposition efficiency of daidzin family in roasted soy flour” value (35 °C, heat treatment of enzyme: no, 0 h) was 48.6%, the “Decomposition efficiency of daidzin family in roasted soy flour” value (35 °C, heat treatment of enzyme: no, 1 h) was 11.7% and the “Decomposition efficiency of daidzin family in roasted soy flour” value (35 °C, heat treatment of enzyme: no, 3 h) was “not detected”. For the same compound, the “Decomposition efficiency of daidzin family in roasted soy flour” value (35 °C, heat treatment of enzyme: no, 6 h) was “not detected”, the “Decomposition efficiency of daidzin family in roasted soy flour” value (35 °C, heat treatment of enzyme: yes, 6 h) was 50.3% and the “Decomposition efficiency of daidzin family in concentrated soybean protein” value [6] was 52.4%. For the same compound, the “Decomposition efficiency of daidzin family in defatted soybean” value [6] was 40.5%, the “Decomposition efficiency of daidzin family in concentrated soybean protein” value [7] was 10.6% and the “Decomposition efficiency of daidzin family in defatted soybean” value [7] was “not detected”. For the same compound, the “Decomposition efficiency of daidzin family in concentrated soybean protein” value [8] was 9.6%, the “Decomposition efficiency of daidzin family in defatted soybean” value [8] was “not detected” and the “Decomposition efficiency of daidzin family in concentrated soybean protein” value [9] was 1.7%. For the same compound, the “Decomposition efficiency of daidzin family in defatted soybean” value [9] was “not detected”, the “Decomposition efficiency of daidzin family in concentrated soybean protein” value [10] was 94.3% and the “Decomposition efficiency of daidzin family in defatted soybean” value [10] was “not detected”. For the same compound, the “Decomposition efficiency of daidzin family in roasted soy flour” value [11] was 48.6%, the “Decomposition efficiency … in soymilk” value [11] was 33.9% and the “Decomposition efficiency of daidzin family in roasted soy flour” value [12] was 3.6%. For the same compound, the “Decomposition efficiency … in soymilk” value [12] was 6.8%, the “Decomposition efficiency of daidzin family in roasted soy flour” value [13] was 2.7% and the “Decomposition efficiency … in soymilk” value [13] was 6.9%. For the same compound, the “Decomposition efficiency of daidzin family in roasted soy flour” value [14] was 5.4%, the “Decomposition efficiency … in soymilk” value [14] was 6.9% and the “Decomposition efficiency of daidzin family in roasted soy flour” value [15] was 49.4%. For the same compound, the “Decomposition efficiency … in soymilk” value [15] was 36.0%, the “Decomposition efficiency of daidzin family in concentrated soybean protein” value [16] was 52.5% and the “Decomposition efficiency of daidzin family in defatted soybean” value [16] was 42.2%. For the same compound, the “Decomposition efficiency of daidzin family in concentrated soybean protein” value [17] was 1.0%, the “Decomposition efficiency of daidzin family in defatted soybean” value [17] was “not detected” and the “Decomposition efficiency of daidzin family in concentrated soybean protein” value [18] was “not detected”. For the same compound, the “Decomposition efficiency of daidzin family in defatted soybean” value [18] was “not detected”, the “Decomposition efficiency of daidzin family in concentrated soybean protein” value [19] was “not detected” and the “Decomposition efficiency of daidzin family in defatted soybean” value [19] was “not detected”. For the same compound, the “Decomposition efficiency of daidzin family in concentrated soybean protein” value [20] was 54.6%, the “Decomposition efficiency of daidzin family in defatted soybean” value [20] was “not detected” and the “Decomposition efficiency of daidzin family in roasted soy flour” value [21] was 48.8%. The “Decomposition efficiency … in soymilk” value [21] was 34.2%, the “Decomposition efficiency of daidzin family in roasted soy flour” value [22] was “not detected” and the “Decomposition efficiency … in soymilk” value [22] was “not detected”. For the same compound, the “Decomposition efficiency of daidzin family in roasted soy flour” value [23] was “not detected”, the “Decomposition efficiency … in soymilk” value [23] was “not detected” and the “Decomposition efficiency of daidzin family in roasted soy flour” value [24] was “not detected”. For the same compound, the “Decomposition efficiency … in soymilk” value [24] was “not detected”, the “Decomposition efficiency of daidzin family in roasted soy flour” value [25] was 51.1% and the “Decomposition efficiency … in soymilk” value [25] was 40.7%. For the same compound, the “Decomposition efficiency of daidzin family in concentrated soybean protein” value [26] was 52.3%, the “Decomposition efficiency of daidzin family in defatted soybean” value [26] was 40.5% and the “Decomposition efficiency of daidzin family in concentrated soybean protein” value [27] was 1.8%. For the same compound, the “Decomposition efficiency of daidzin family in defatted soybean” value [27] was “not detected”, the “Decomposition efficiency of daidzin family in concentrated soybean protein” value [28] was 1.7% and the “Decomposition efficiency of daidzin family in defatted soybean” value [28] was “not detected”. For the same compound, the “Decomposition efficiency of daidzin family in concentrated soybean protein” value [29] was 1.7%, the “Decomposition efficiency of daidzin family in defatted soybean” value [29] was “not detected” and the “Decomposition efficiency of daidzin family in concentrated soybean protein” value [30] was 53.2%. For the same compound, the “Decomposition efficiency of daidzin family in defatted soybean” value [30] was 32.8%, the “Decomposition efficiency of daidzin family in roasted soy flour” value [31] was 48.6% and the “Decomposition efficiency … in soymilk” value [31] was 34.1%. The “Decomposition efficiency of daidzin family in roasted soy flour” value [32] was “not detected”, the “Decomposition efficiency … in soymilk” value [32] was “not detected” and the “Decomposition efficiency of daidzin family in roasted soy flour” value [33] was “not detected”. For the same compound, the “Decomposition efficiency … in soymilk” value [33] was “not detected”, the “Decomposition efficiency of daidzin family in roasted soy flour” value [34] was “not detected” and the “Decomposition efficiency … in soymilk” value [34] was “not detected”. For the same compound, the “Decomposition efficiency of daidzin family in roasted soy flour” value [35] was 49.7%, the “Decomposition efficiency … in soymilk” value [35] was 48.7% and the “Decomposition efficiency of daidzin family in concentrated soybean protein” value [36] was 52.4%. The “Decomposition efficiency of daidzin family in defatted soybean” value [36] was 40.5%, the “Decomposition efficiency of daidzin family in concentrated soybean protein” value [37] was 22.6% and the “Decomposition efficiency of daidzin family in defatted soybean” value [37] was 7.8%. The “Decomposition efficiency of daidzin family in concentrated soybean protein” value [38] was 23.3%, the “Decomposition efficiency of daidzin family in defatted soybean” value [38] was 19.2% and the “Decomposition efficiency of daidzin family in concentrated soybean protein” value [39] was 25.5%. The “Decomposition efficiency of daidzin family in defatted soybean” value [39] was 30.4%, the “Decomposition efficiency of daidzin family in concentrated soybean protein” value [40] was 54.5% and the “Decomposition efficiency of daidzin family in defatted soybean” value [40] was 60.9%. For the same compound, the “Decomposition efficiency of daidzin family in roasted soy flour” value [41] was 48.6%, the “Decomposition efficiency … in soymilk” value [41] was 33.9% and the “Decomposition efficiency of daidzin family in roasted soy flour” value [42] was 3.2%. The “Decomposition efficiency … in soymilk” value [42] was 8.9%, the “Decomposition efficiency of daidzin family in roasted soy flour” value [43] was 4.4% and the “Decomposition efficiency … in soymilk” value [43] was 23.9%. For the same compound, the “Decomposition efficiency of daidzin family in roasted soy flour” value [44] was 12.5%, the “Decomposition efficiency … in soymilk” value [44] was 42.9% and the “Decomposition efficiency of daidzin family in roasted soy flour” value [45] was 51.3%. The “Decomposition efficiency … in soymilk” value [45] was 69.5%.

Reference: patent US7118895B2, “Process for producing aglycon by using diglycosidase and flavor-improved food containing the aglycon and converting agent to be used in the process” (Amano Enzyme Inc., priority 2000, dated 2006)
